pKd: −log10 of the molar value.
Legend:
Cytochrome P450 1A1 = target: T1, Cytochrome P450 1A1 (Rattus norvegicus, UniProt P00185); test: Spectral dissociation constant for rat liver Cytochrome P450 1A1; format: ADME; details: read-out: Ks
T1 sequence (P00185 whole entry): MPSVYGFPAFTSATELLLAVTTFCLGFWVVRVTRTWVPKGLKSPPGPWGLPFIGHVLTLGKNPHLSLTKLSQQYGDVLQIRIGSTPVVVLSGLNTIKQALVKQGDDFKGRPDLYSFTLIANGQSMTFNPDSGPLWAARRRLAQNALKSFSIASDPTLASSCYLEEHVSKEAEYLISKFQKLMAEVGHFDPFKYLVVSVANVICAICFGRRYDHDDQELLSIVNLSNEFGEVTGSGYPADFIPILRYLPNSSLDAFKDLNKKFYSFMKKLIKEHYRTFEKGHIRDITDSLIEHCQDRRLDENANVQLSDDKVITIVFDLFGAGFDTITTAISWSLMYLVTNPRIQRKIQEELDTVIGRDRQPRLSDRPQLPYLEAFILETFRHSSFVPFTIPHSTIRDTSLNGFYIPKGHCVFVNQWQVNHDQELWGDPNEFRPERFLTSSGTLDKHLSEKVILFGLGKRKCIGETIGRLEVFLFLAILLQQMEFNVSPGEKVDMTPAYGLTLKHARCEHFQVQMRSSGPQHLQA

Cytochrome P450 2B1 = target: T2, Cytochrome P450 2B1 (Rattus norvegicus, UniProt P00176); test: Spectral dissociation constant for rat liver Cytochrome P450 2B1; format: ADME; details: read-out: Ks
T2 sequence (P00176 whole entry): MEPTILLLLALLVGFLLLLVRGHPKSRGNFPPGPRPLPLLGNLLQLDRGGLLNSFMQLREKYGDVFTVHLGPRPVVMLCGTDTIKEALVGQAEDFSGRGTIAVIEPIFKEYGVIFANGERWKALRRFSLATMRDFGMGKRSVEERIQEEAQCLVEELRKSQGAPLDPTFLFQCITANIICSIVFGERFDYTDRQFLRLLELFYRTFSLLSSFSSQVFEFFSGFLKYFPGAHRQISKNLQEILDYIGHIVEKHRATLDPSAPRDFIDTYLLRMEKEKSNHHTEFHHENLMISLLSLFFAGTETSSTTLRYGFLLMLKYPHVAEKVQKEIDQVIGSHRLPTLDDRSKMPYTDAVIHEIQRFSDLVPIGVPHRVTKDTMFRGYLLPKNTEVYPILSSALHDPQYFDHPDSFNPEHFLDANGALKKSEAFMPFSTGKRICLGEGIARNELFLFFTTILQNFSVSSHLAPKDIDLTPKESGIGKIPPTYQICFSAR

Q: Which results are given for `CC(=O)Nc1ccc(O)cc1` [ACETAMINOPHEN]?
A: pKd (Cytochrome P450 1A1): 3.06; pKd (Cytochrome P450 2B1): 3.10

Source: ChEMBL document CHEMBL1127814, “Preferred orientations in the binding of 4'-hydroxyacetanilide (acetaminophen) to cytochrome P450 1A1 and 2B1 isoforms as determined by 13C- and 15N-NMR relaxation studies” (J Med Chem, 1994)
